Laboratory results from PubChem BioAssay (NCI).
Values joined by “and” are separate entries in the source; they are usually repeats but may differ in a detail not shown here. Equal entries are not always repeated.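 Cultured in 96-well plates, cells were exposed to test compound for 48 hours across five concentrations. At the GI50, growth is halved. TGI is the concentration that stops growth completely.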

Legend:
Test in all cases: NCI tumour cell line growth inhibition, 48 h
A549 NSCLC = tested on: A549 NSCLC
CAKI-1 renal = tested on: CAKI-1 renal
HL-60(TB) leukemia = tested on: HL-60(TB) leukemia
HOP-18 NSCLC = tested on: HOP-18 NSCLC
KM12 colon = tested on: KM12 colon
KM20L2 colon = tested on: KM20L2 colon
MALME-3M melanoma = tested on: MALME-3M melanoma
NCI-H23 lung = tested on: NCI-H23 lung
NCI-H460 lung = tested on: NCI-H460 lung
RXF 393 renal = tested on: RXF 393 renal

Row | SMILES | TGI (A549 NSCLC) | TGI (CAKI-1 renal) | TGI (HL-60(TB) leukemia) | TGI (HOP-18 NSCLC) | TGI (KM12 colon) | TGI (KM20L2 colon) | TGI (MALME-3M melanoma) | TGI (NCI-H23 lung) | TGI (NCI-H460 lung) | TGI (RXF 393 renal) | GI50 (A549 NSCLC) | GI50 (CAKI-1 renal) | GI50 (HL-60(TB) leukemia) | GI50 (KM12 colon) | GI50 (KM20L2 colon) | GI50 (MALME-3M melanoma) | GI50 (NCI-H23 lung) | GI50 (NCI-H460 lung) | GI50 (RXF 393 renal)
1 | CCOc1ccc(/C=C/C(=O)c2sc(NNC(C)=O)nc2C)cc1 | > 100 µM | > 100 µM | > 100 µM | > 100 µM | > 100 µM | > 100 µM | > 100 µM | > 100 µM | > 100 µM | > 100 µM |  |  |  |  |  |  |  |  | 
2 | Cc1cc2c(=O)cc(-c3ccncc3)oc2c(C(N)=O)c1C | > 100 µM |  | > 100 µM | > 100 µM |  | > 100 µM | > 100 µM | > 100 µM | > 100 µM | > 100 µM |  |  |  |  |  |  |  |  | 
3 | N#Cc1cccc(C2SCc3nc4ccccc4n32)c1 (stereo not given) | > 100 µM | > 100 µM | > 100 µM |  | > 100 µM | > 100 µM | > 100 µM | > 100 µM | > 100 µM | > 100 µM |  |  |  |  |  |  |  |  | 
4 | CCc1cccc(CC)c1NC1=CC(=O)C(=O)c2ccccc21 | 37.8 µM | 44.3 µM | > 100 µM | 62.9 µM | 33.2 µM | 48.9 µM | 31.9 µM | 3.02 µM | 48.8 µM | 45.2 µM |  |  |  |  |  |  |  |  | 
5 | C#CC[C@]12CC(=O)CC[C@H]1CC1(C2)OCCO1 | > 100 µM | > 100 µM | > 100 µM | > 100 µM | > 100 µM | > 100 µM | > 100 µM |  | > 100 µM | > 100 µM |  |  |  |  |  |  |  |  | 
6 | Cc1nc2ccccc2c(=O)n1/N=C(\N=Nc1ccc(Cl)cc1)c1ccc(N(C)C)cc1 | > 100 µM | > 100 µM |  | > 100 µM |  | > 100 µM |  | > 100 µM | > 100 µM | > 100 µM |  |  |  |  |  |  |  |  | 
7 | CCC[CH2][Sn]1([CH2]CCC)[O]C(=O)c2cccnc2[S]1 | 31.6 µM | 8.05 µM | 3.31 µM |  | 19.6 µM | 21 µM | 4.31 µM | 5.41 µM | 23.6 µM | 3.2 µM | 16.8 µM | 1.76 µM | 1.42 µM | 6.92 µM | 7.72 µM | 1.49 µM | 2.13 µM | 11.4 µM | 1.66 µM
8 | BrC(/C=N/Nc1nnc(-c2ccccc2)c(-c2ccccc2)n1)C(Br)c1ccccc1 (stereo not given) | > 100 µM | > 100 µM | 79.5 µM |  | > 100 µM | > 100 µM | > 100 µM | > 100 µM | > 100 µM | > 100 µM |  |  |  |  |  |  |  |  | 
9 | COc1cc(CC2c3cc(OC)c(OC)cc3CCN2C)c(C(=O)O)cc1OC (stereo not given) | > 100 µM |  | > 100 µM | > 100 µM | > 100 µM | > 100 µM | > 100 µM | > 100 µM |  | > 100 µM |  |  |  |  |  |  |  |  | 
10 | CC(=O)Nc1ccc(/C=C/C(=O)c2sc(-n3nc(-c4ccccc4)cc3-c3ccccc3)nc2C)cc1 | > 100 µM | > 100 µM | > 100 µM |  | > 100 µM | > 100 µM | > 100 µM | > 100 µM | > 100 µM | > 100 µM | > 100 µM | > 100 µM | > 100 µM |  | > 100 µM | > 100 µM | > 100 µM | > 100 µM | > 100 µM
11 | CS(=O)c1cc(=O)c2ccccc2s1 (stereo not given) | 38.3 µM | 6.2 µM | 4.63 µM | 19.7 µM | 28.4 µM | 13.4 µM | 4.53 µM | 15.4 µM | 35 µM | 5.46 µM |  |  |  |  |  |  |  |  | 
12 | CCCCP1(=O)C=CC(Cl)=C(C)C1 (stereo not given) | > 100 µM |  | > 100 µM | > 100 µM | > 100 µM | > 100 µM | > 100 µM | > 100 µM | > 100 µM | > 100 µM |  |  |  |  |  |  |  |  | 
13 | O=C(c1ccccc1)N1CCc2c([nH]c3ccccc23)C1 | > 100 µM | 86.4 µM | 43.1 µM | > 100 µM | > 100 µM | > 100 µM | > 100 µM | > 100 µM | > 100 µM |  |  |  |  |  |  |  |  |  | 
14 | O=C(NC(=Nc1ccccc1)SCCSC(=Nc1ccccc1)NC(=O)c1ccccc1)c1ccccc1 | > 100 µM | > 100 µM |  |  | > 100 µM | > 100 µM | > 100 µM | > 100 µM | > 100 µM | 95.6 µM |  |  |  |  |  |  |  |  | 
15 | Cc1c(Cl)ccc2[s+]snc12 | > 100 µM | > 100 µM | 43.7 µM | 95.2 µM | > 100 µM | > 100 µM | > 100 µM | > 100 µM | > 100 µM | 37.2 µM |  |  |  |  |  |  |  |  | 
16 | N#CSc1c[nH]c2cccc(/C=C/C(=O)/C=C(O)/C=C/c3cccc4[nH]cc(SC#N)c34)c12 | 2.78 µM | 1.56 µM | 1.75 µM |  | 0.998 µM |  | 1.07 µM | 1.89 µM | 0.899 µM | 1 µM | 0.353 µM | 0.609 µM | 0.437 µM | 0.351 µM |  | 0.52 µM | 0.426 µM | 0.228 µM | 0.326 µM
17 | COc1cc(Br)c(C2OCCCO2)cc1OCc1ccccc1 | > 100 µM |  | > 100 µM |  | > 100 µM | > 100 µM |  | > 100 µM | > 100 µM | > 100 µM |  |  |  |  |  |  |  |  | 
18 | CC[C@@]12CC(C(=O)OC)=C3Nc4ccccc4[C@@]34CCN(C[C@H]3O[C@H]31)[C@@H]24 | > 100 µM | > 100 µM | 81 µM |  | > 100 µM |  | > 100 µM | > 100 µM | > 100 µM | > 100 µM | 58.3 µM | 36.9 µM | 24.7 µM | 41.3 µM |  | 30.5 µM | 60.7 µM | 46.6 µM | 26.4 µM
19 | c1c[nH]c(CN2CCN(Cc3ncc[nH]3)CC2)n1 | > 100 µM | > 100 µM | > 100 µM |  | > 100 µM |  | > 100 µM | > 100 µM | > 100 µM | > 100 µM |  |  |  |  |  |  |  |  | 
20 | O=C1Nc2ccc(I)cc2/C1=C/c1cc(Br)c(O)c(Br)c1 | > 25 µM and 97 µM | > 25 µM and 72 µM | > 100 µM |  | > 25 µM and 28.7 µM |  | 22.2 µM and > 64.5 µM | > 25 µM and 55 µM | > 25 µM and 44.1 µM | > 25 µM and 28.3 µM | > 24.2 µM and 22.7 µM | > 15.9 µM and 14.9 µM | > 47.8 µM | > 15.9 µM and 12 µM |  | 5.9 µM and 4.62 µM | > 17 µM and 18.1 µM | > 17.4 µM and 17 µM | > 16.6 µM and 12 µM
21 | O=C1N(c2ccccc2)C2(O)C(=O)c3ccccc3C2(O)N1c1ccccc1 (stereo not given) | > 100 µM | > 100 µM |  | > 100 µM | > 100 µM | > 100 µM | > 100 µM | > 100 µM | > 100 µM | > 100 µM |  |  |  |  |  |  |  |  | 
22 | O=C(CC1(O)C(=O)Nc2ccc(Br)cc21)c1cccc([N+](=O)[O-])c1 (stereo not given) | > 100 µM | > 100 µM | 67.3 µM | > 100 µM | > 100 µM | > 100 µM | > 100 µM | > 100 µM | > 100 µM | 83.8 µM |  |  |  |  |  |  |  |  | 
23 | C/C(=N\NC(N)=S)c1ccc(Oc2ccccc2)cc1 | 74.4 µM |  | 23 µM | 80 µM |  | 26.5 µM |  | 83.3 µM | 42.6 µM | 26.2 µM |  |  |  |  |  |  |  |  | 
24 | Nc1nc(N)c2nc(CNc3ccc(C(=O)NC(CCC(=O)O)C(=O)O)cc3)cnc2n1 (stereo not given) | > 100 µM | > 100 µM | > 100 µM |  | > 100 µM |  | > 100 µM | > 100 µM | > 100 µM | > 100 µM | 0.032 µM and < 0.01 µM | < 0.01 µM | < 0.01 µM | < 0.01 µM |  | 0.921 µM | 0.0604 µM and 0.0213 µM | < 0.01 µM | 
25 | NC1=Nc2cc(OCCCCN3Cc4ccccc4C3)c(OCC3CC3)cc2C12CCCC2 | 4.84 µM | 6.5 µM | 3.55 µM |  | 3.39 µM |  | 3.12 µM | 5.36 µM | 3.21 µM | 2.6 µM | 1.99 µM | 2.1 µM | 1.73 µM | 1.72 µM |  | 1.63 µM | 2.15 µM | 1.67 µM | 1.22 µM
26 | Cc1cc(Br)ccc1N=NC1C(=O)ON=C1c1ccccc1 (stereo not given) | > 100 µM |  | > 100 µM | > 100 µM | > 100 µM | > 100 µM | > 100 µM | > 100 µM | > 100 µM | > 100 µM |  |  |  |  |  |  |  |  | 
